Test results taken from patent US9045517B2, “Glycosylated aminocoumarins and methods of preparing and uses of same” (University College London, priority 2010, dated 2015).
Converted amounts (≈) assume the structure as drawn.

How the values were obtained:
U87MG (brain cancer) = assay: MTT anti-proliferative assay, U87MG; type: cell-based; conditions: Homo sapiens, U-87 MG, U87MG cells, 24 h continuous exposure
Method: (§1) The cell number is estimated colorimetrically based on the transformation of the yellow MTT reagent (3-(4,5-Dimethylthiazol-2-yl)-2,5-diphenyltetrazolium bromide) to a purple formazan dye by mitochondrial enzymes.
(§2) Human cell lines derived from ovarian cancer (A2780, ECACC 93112519), lung cancer (A549, ATCC CCL-185), breast cancer (MCF7, ATCC HTB-22), pancreatic cancer (MiaPaCa2, ATCC CRL-1420) and brain cancer (U87MG, ATCC HTB-14), were obtained from the European Collection of Cell Cultures (ECACC, Salisbury, UK). The A2780, A549, MCF7 and MiaPaCa2 cells were grown in Dulbecco's Modified Eagle Medium (DMEM) supplemented with 10% fetal bovine serum (Biosera, UK), 1% L-glutamine and 1% non-essential aminoacids (Gibco, Invitrogen, USA). U87MG cells were grown in Minimal essential medium supplemented with 10% fetal bovine serum (Biosera, UK), 1% L-glutamine, 1% non-essential aminoacids and 1% Sodium piruvate (Gibco, Invitrogen, USA). Cells were grown in a 5% CO2, 95% humidity incubator. […] The compounds were dissolved in methanol at a maximum concentration of 20 mM, and serial decimal dilutions were prepared in methanol. For each compound and each concentration, 5 μl of the methanol solution were added over the cells, growing in 100 μl of cell culture medium per well (n=6). After 24 h of continuous drug exposure, the growth inhibition was determined using the MTT assay (Lancaster Synthesis Ltd, UK). The amount of dye was quantified spectrophotometrically as absorbance at λ=570 nm (ELx808, Bio-Tek Instruments, Inc.). The IC50 values were calculated by a dose-response analysis using the Origin 6.0® software.

A549 (lung cancer) = assay: MTT anti-proliferative assay, A549; type: cell-based; conditions: Homo sapiens, A549 cells, 24 h continuous exposure
Method: as §1, §2

MCF7 (breast cancer) = assay: MTT anti-proliferative assay, MCF7; type: cell-based; conditions: Homo sapiens, MCF7 cells, 24 h continuous exposure
Method: as §1, §2

DNA Gyrase = molecular target: T1, DNA Gyrase (Escherichia coli, UniProt P0AES6); assay: DNA gyrase supercoiling assay (relaxed pBR322, agarose gel); type: biochemical; conditions: DNA Gyrase 1U, relaxed pBR322, 37 C, 1 hr
T1 construct: purchased
Method: DNA Gyrase (1U) is incubated with relaxed pBR322 (0.5 μg) in a reaction volume of 30 μL at 37 °C for 1 hr in TRIS-HCl (35 mM, pH 7.5), KCl (24 Mm), MgCl2 (4 mM), DTT (2 mM), spermidine (1.8 mM), ATP (1 mM), glycerol (6.5%, w/v), albumin (0.1 mg/mL).
After incubation the mixture was deproteinized with equal volumes of chloroformisoamyl alcohol (24:1) and the end point was determined by separating relaxed and supertwisted plasmid pBR322DNA by agarose gel electrophoresis (0.8% agarose with TBE buffer), running without Ethidium Bromide. After the run the gel is soaked, in tank buffer containing Ethidium Bromide, for 1 and half hours.

A2780 (ovarian cancer) = assay: MTT anti-proliferative assay, A2780; type: cell-based; conditions: Homo sapiens, A2780 cells, 24 h continuous exposure
Method: as §1, §2

Escherichia coli = assay: MIC by micro-broth dilution against Escherichia coli, with or without PEI; type: cell-based
Method: Microtitre plates were incubated aerobically at 37° C. and read after one and four days. The concentration range tested was 128 to 0.5 μg/ml. A cell permeabilising agent, polyethylenimine (PEI) was used to assess the influence of cell membrane (and associated structures) as a barrier to novobiocin entry into the cell. Isopropyl β-D-1-thiogalactopyranoside (100 μM) was used to induce β-glycosidase and β-galactosidase expression from plasmids pSsβG and pBCSK, respectively. These enzymes can release the native drugs from the conjugates.

[1] = test system: MiaPaCa2 (pancreatic cancer); assay: MTT anti-proliferative assay, MiaPaCa2; type: cell-based; conditions: Homo sapiens, MIA PaCa-2, MiaPaCa2 cells, 24 h continuous exposure
Method: as §1, §2

[2] = Toxicity relative to precursor (no method given); conditions: versus novobiocin

SMILES	IC50 (U87MG (brain cancer)) [µM]	IC50 (A549 (lung cancer)) [µM]	IC50 (MCF7 (breast cancer)) [µM]	MIC in DNA gyrase assay (DNA Gyrase) [µM]	IC50 (A2780 (ovarian cancer)) [µM]	re-growth on prolonged incubation at concentrations above the MIC (Escherichia coli; prolonged incubation up to 4 days)	IC50 [1] [µM]	toxicity compared with precursor [2]	increased activity against Escherichia coli in the presence of PEI (Escherichia coli; with polyethylenimine (PEI), independent of β-galactosidase)
CO[C@@H]1C(OC(N)=O)C(O)[C@H](Oc2ccc3c(O[C@@H]4O[C@H](CO)[C@H](O)[C@H](O)[C@H]4O)c(NC(=O)c4ccc(O)c(CC=C(C)C)c4)c(=O)oc3c2C)OC1(C)C (some centres unmarked) [Galactosyl_Novobiocin]	30	100	40	3 (≈ 2.32 µg/mL)	100	did not lead to re-growth	30		
CO[C@@H]1C(OC(N)=O)C(O)[C@H](Oc2ccc3c(O[C@@H]4OC(CO)[C@@H](O)C(O)C4O)c(NC(=O)c4ccc(O)c(CC=C(C)C)c4)c(=O)oc3c2C)OC1(C)C (stereo partly drawn) [Glucosyl_Novobiocin, β-4′-O-glucosyl Novobiocin]	20	60	10	3 (≈ 2.32 µg/mL)	130		10	less toxic than its precursor	
CO[C@@H]1[C@@H](OC(N)=O)[C@@H](O)[C@H](Oc2ccc3c(O)c(NC(=O)c4ccc(O)c(CC=C(C)C)c4)c(=O)oc3c2C)OC1(C)C [Novobiocin, reference compound]	580	> 1000	> 1000		190		320		16-32 fold
